Measurements taken from patent publication US9707244B2, “Compositions and methods for treating conditions that affect epidermis” (Gencia Corporation, priority 2013, dated 2017).

Columns and labels:
[1] = tested on: AG11073 fibroblasts from a person; test: 3D collagen cell culture system, aged skin fibroblasts; format: cell-based, human; conditions: five days post-treatment
Method: The effects of Mitocreatine on skin fibroblasts cultured in a 3D matrix to better simulate in vivo milieu were examined. The cells were visualized by phase contrast light microscopy and their biological response to different concentrations of Mitocreatine evaluated. The 3D Collagen Cell Culture System from Millipore (Catalogue number ECM 675) was utilized.
All liquids were prepared according to manufacturer's instructions, and kept on ice. Tissue culture plates were coated with collagen by pipetting 500 μL of chilled Collagen Gel Solution into each well of a 24 well tissue culture plate. The plate was immediately transferred to a 37° C. incubator for 60 min to initiate polymerization of the collagen.
After the formation of the collagen gel, AG11073 and AG16409 cells were harvested and re-suspended at 4×10^5/mL and 1×10^6 cells were seeded onto the collagen gel. The cells were obtained using the procedure as described in Example 1.
After overnight incubation at 37° C. with 5% CO2 the media was replaced with fresh media containing various doses of Mitocreatine or the vehicle. Cells were visualized daily using phase contrast microscopy.
Fibroblasts from a person were cultured on a collagen matrix. Two days after seeding, cells were treated with a Mitocreatine at increasing amounts (0, 5, 15 and 25 μL). Five days post-treatment, collagen shrinkage was assayed by means of translucency. […]

C57BL/6J mice = test: Fore-limb grip strength test; format: in vivo; conditions: 10, 20, 30 mg/kg p.o. once daily for 30 days
Method: Group Setting: C57BL/6J mice were randomly assigned into five groups with different treatment started with balanced full-paw and fore-paw grip strength. Seventy five female mice were dosed at 4 PM for 30 consecutive days (qd). • 1. Vehicle (p.o. via oral gavage once daily for 30 days, n=15) • 2. Creatine (300 mg/kg, p.o. via oral gavage once daily for 30 days, n=15) • 3. Mitocreatine (10 mg/kg, p.o. via oral gavage once daily for 30 days, n=15) • 4. Mitocreatine (20 mg/kg, p.o. via oral gavage once daily for 30 days, n=15) • 5. Mitocreatine (30 mg/kg, p.o. via oral gavage once daily for 30 days, n=15). One hundred female mice were tested before dosing for a baseline of grip strength. 75 mice were selected and randomly assigned into 5 groups for different treatment. Seventy five mice (group 1-5) were test on day 31. Mice were allowed to acclimate to the testing room for at least 30 min before tested. All animals were marked on the tail with a permanent mark pen. Mouse was lowered towards the grid on the push-pull gauge until it grabbed with both front paws Animal was gently pulled backwards by the tail with an angle less than 15° until it released its grip of both fore-paws. The maximal fore-limb grip force was recorded on the strain gauge. Test was repeated 3 times with 15 min interval each time and the average was used. […]

[2] = tested on: ARPE-19 cells, a retinal pigmented epithelial cell line; test: XF24 oxygen consumption in senescent ARPE-19 cells; format: cell-based, human; conditions: twenty-four hours after treatment; increasing concentrations
Method: In the present invention ARPE-19 cells were used to evaluate whether Mitocreatine improves mitochondrial parameters and reduces ROS in a cell model of AMD. The cells were prematurely senescenced according to the protocol of Glotin et al. (2008). […] Cells were plated in a XF24 (Seahorse Biosciences) plate for analysis of mitochondrial activities. Twenty-four hours before analysis in the XF24 instrument, cells were treated with increasing concentrations on mitocreatine and vehicle. Twenty-four hours after treatment basal oxygen consumption rates (OCR) were assayed. […] Cells were plated in a XF24 (Seahorse Biosciences) plate for analysis of mitochondrial activities. Twenty-four hours before analysis in the XF24 instrument, cells were treated with increasing concentrations on mitocreatine and vehicle. Twenty-four hours after treatment FCCP-stimulated oxygen consumption rates (maximal OCR) were assayed.

adult participants = test: Double-blind, randomized, placebo-controlled study of 0.1% Mitocreatine lotion on the dorsum of the hand; format: in vivo, human
Method: This was followed by a double-blind, randomized, placebo-controlled safety and efficacy trial of 0.1% once-daily topical application of mitocreatine to the dorsum of hands. […]. After obtaining informed consent, participants were interviewed by a physician for screening for history of skin disease, allergy and general medical issues. An initial evaluation of skin on the dorsum of the hand was performed. Qualifying participants were issued the test articles and self-assessment forms, and instructed to apply the “Right hand” and “Left hand” vial contents to the dorsum of respective hands once daily, preferably in the evening. Participants were allowed the use of other cosmetics. Once a week the participants filled out the self-assessment forms as instructed during the initial evaluation. The questions in the forms pertained to comparisons of wrinkling, color, pigmented lesions, hydration, roughness and elasticity of skin between right and left hand. One question also elicited the subjective overall impression of skin appearance (better vs. worse) between the hands. […] The participants and the evaluator were blinded to the treated side until after the exit evaluation was finished.
Before the start of study a set of 30 consecutively numbered pairs of bottles containing drug or placebo creams was generated. Of these 30 pairs of bottles 15 pairs treated the right side treated and 15 pairs treated the left side with the drug. The order of right vs. left treatment pairs was random. Participants were assigned a number in the order of recruitment. 17 subjects participated in the study, whereof 15 completed the study. Two subjects dropped out of the study due to non-study related causes. Of the 15 remaining individuals, 9 had their right hand treated whereas 6 had their left hand treated. Data from initial and exit evaluations and self-report forms were tabulated and analyzed using Fisher's exact test and Pearson's chi-squared test. Skin on the dorsum of participants' hands was evaluated by a physician at the initial evaluation and at the conclusion of the study. None of the volunteers had lesions disqualifying from participation (neoplasm, large vascular lesions, wounds, burns, large scars).
The weekly self-report forms included questions about the following adverse outcomes: itching, redness, pain, swelling, blistering, other discoloration, skin cracking and dryness. Participants were also provided with a contact number and instructed to immediately report any of the listed or other worrisome events.

[3] = tested on: ARPE-19 cells, a retinal pigmented epithelial cell line; test: WST-1 cell viability in senescent ARPE-19 cells; format: cell-based, human; conditions: up to 1 uM; twenty-four hours after treatment
Method: In the present invention ARPE-19 cells were used to evaluate whether Mitocreatine improves mitochondrial parameters and reduces ROS in a cell model of AMD. The cells were prematurely senescenced according to the protocol of Glotin et al. (2008). […] Cells were plated in a 96 well plate for analysis of WST-1 bioreduction, a formazan based dye similar to MTT whose bioreduction is largely dependent on the glycolytic production of NAD(P)H in viable cells and is routinely used to monitor cell viability.

With `CN(CC(=O)NCCC[P+](c1ccccc1)(c1ccccc1)c1ccccc1)C(=N)N.Cl.[Cl-]` [Mitocreatine, N^2-[ammonio(imino)methyl]-N^2-methyl-N-[3-(triphenylphosphonio)propyl] glycinamide dichloride] the collagen matrix translucency [1] was “dose-dependent increase”, the “strength (fore limb grip force)” value (C57BL/6J mice) was “Increases Endurance and Strength” and the basal oxygen consumption [2] was “dose-dependent increase”. For the same molecule, the “maximal oxygen consumption (FCCP-stimulated)” value [2] was “dose-dependent increase”, the “adverse outcomes reported by participants” value (adult participants; 0.1% lotion once daily, four weeks) was “No adverse outcomes” and the “pathological changes noted by the evaluating physician” value (adult participants; 0.1% lotion once daily, final follow-up visit) was “No pathological changes”. The “participants who correctly identified the treated hand” value (adult participants; 13/15, p=0.0074 by binomial test) was 87%, the “participants with improvement in wrinkles” value (adult participants; drug hand, 7/15, p=0.0033) was 45% and the “participants with an improvement in general skin health” value (adult participants; drug hand, 11/15, p=0.00025) was 73%. For the same molecule, the “participants with improvement in thickness” value (adult participants; drug hand, 13/15, p=0.0029) was 87%, the “participants with improvement in tightness” value (adult participants; drug hand, 13/15, p=0.019) was 87% and the “participants reporting an improvement in at least two measures” value (adult participants; drug hand, 14/15, 0.1% lotion, four weeks, p=0.0142) was 93%. For the same molecule, the “cell viability (WST-1)” value [3] was “does not negatively impact cell viability”.
